IC50 data for 28 molecules are collected here from patent publication US20240246918A1, “COMPOUNDS AND COMPOSITIONS AS EIF4E INHIBITORS AND THE USES THEREOF” (Ribometrix, Inc., priority 2022, published 2024).

For orientation: IC50 means the concentration needed to halve the response being measured.

Assay [1] deals with COLO 205 colorectal tumor cells. Put plainly: Tumor cell viability inhibition assay (CellTiter-Glo 2.0, 72 hours). In kind it is cell-based. The following applies: COLO 205 cell viability. The protocol:
The effect of compound treatment on COLO 205 tumor cell viability was assessed using cellular ATP quantification methods (Promega CellTiter-Glo® 2.0, G9241), as follows. Test compounds were prepared using 11-point, 4-fold serial dilutions in DMSO and 100 nL of diluted compounds were transferred to 384-well assay-ready plates. COLO 205 (ATCC, CCL-222) colorectal tumor cells were seeded to assay-ready plates in RPMI-1640 medium supplemented with 10% FBS at 1500 cells in a volume of 33.5 microliters per well. After 72 hours of compound treatment, cellular ATP was assessed by CellTiter-Glo® 2.0 Cell Viability Assay method, according to the manufacturer's instructions. Luminescence was measured using a Clariostar Plus microplate reader (BMG Labtech) or equivalent. After normalization to the average of DMSO control and maximum inhibition control wells, concentration-response data were plotted and standard 4-parameter curve fitting (PEI Signals) was utilized to determine IC50

In assay [2] the target is T1, human eIF4E protein (Homo sapiens, UniProt P06730).
T1 construct: purchased Novus NBP-45314
Put plainly: Biochemical competitive binding assay (TR-FRET competition, EDA-m7GDP-ATTO-647N probe). The following applies: read-out: hEIF4E TR-FRET IC50. As to the method:
The potencies of compounds binding to human eIF4E protein were measured using a 384-well time-resolved fluorescence resonance energy transfer (TR-FRET) competition assay. The assay was performed in assay buffer containing 50 mM HTEPES pH 7.5, 100 mM KCl, 0.02% Tween-20, and 0.1 mg/mL bovine serum albumin (BSA). The reaction volume was 10 μL and each reaction contained 4 nM recombinant 6×HIS-tagged human EIF4E protein (Novus, NBP-45314), 5 nM EDA-m7GDP-ATTO-647N (Jena Bioscience, NU-827-647N), 2.5 nM Europium conjugated Anti-6×HIS antibody (PerkinElmer, AD0402) and varying concentrations of compound. The final DMSO concentration was […].
Compounds were prepared using 11-point, 4-fold serial dilutions in DMSO and 100 nL of diluted compounds were transferred to 384-well assay-ready plates. Recombinant human EIF4E protein at 2× final concentration (8 nM) was pre-incubated with Eu-anti-6×HIS antibody at 2× final concentration (5 nM) for 5 minutes, then 5 μL of the protein solution was added to assay-ready plates. The protein/compound mix was incubated for 15 minutes, after which 5 μL of a solution containing EDA-m7GDP-ATTO-647N probe at 2× final concentration (10 nM) was added. After a subsequent 15-minute incubation, time-resolved fluorescence of assay plates was measured using a Clariostar Plus microplate reader (BMG Labtech) and TR-FRET values were calculated by taking a ratio of the 665 to 620 wavelength signals. After normalization to the average of DMSO control and maximum inhibition control wells, concentration-response data were plotted and standard 4-parameter curve fitting (PEI Signals) was utilized to determine IC50 values.
(In general: In TR-FRET formats the signal depends on donor and acceptor labels being close together.)

T1 sequence (P06730 whole entry): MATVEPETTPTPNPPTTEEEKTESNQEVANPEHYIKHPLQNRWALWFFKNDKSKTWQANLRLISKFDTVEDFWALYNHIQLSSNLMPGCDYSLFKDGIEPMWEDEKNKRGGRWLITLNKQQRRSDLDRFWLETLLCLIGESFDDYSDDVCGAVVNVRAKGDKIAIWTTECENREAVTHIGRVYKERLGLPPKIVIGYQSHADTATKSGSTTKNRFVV

Consider `Cc1cc(-c2cc(Cl)c(=O)[nH]c2OCCn2c(C)nc3c(c2=O)CC(N(C)CC2CC(F)(F)C2)CC3)c2scc(C(=O)O)c2n1` (single isomer, unassigned) [Compound 237], for which the IC50 was over 20 µM in assay [1] (Homo sapiens, COLO 205, 72 h) and 0.5 to 5 µM in assay [2].
Turning to `Cc1cc(-c2cc(Cl)c(=O)[nH]c2OCCn2c(C)nc3c(c2=O)CC(N(C)CC2CC(F)(F)C2)CC3)c2scc(C(=O)O)c2n1` (single isomer, unassigned) [Compound 238], the IC50 in assay [1] is over 20 µM; in assay [2], 0.5 to 5 µM.
`Cc1cc(-c2cc(Cl)ccc2OCCn2c(C)nc3c(c2=O)C[C@@H](N2CCC(OC(F)F)CC2)CC3)c2scc(C(=O)O)c2n1` (single isomer, unassigned) [Compound 360]: the IC50 in assay [1] (Homo sapiens, COLO 205, 72 h) was under 5 µM; in assay [2], under 0.1 µM.
In the same order, the values of `Cc1cc(-c2cc(Cl)ccc2OCCn2c(C)nc3c(c2=O)CC(N2CC4CC(C2)C4(F)F)CC3)c2scc(C(=O)O)c2n1` (single isomer, unassigned) [Compound 361] are under 5 µM and under 0.1 µM.
The matching figures for `[2H]C1(N2CCC(OC(F)(F)F)CC2)CCc2nc(C)n(CCOc3ccc(Cl)cc3-c3cc(C)nc4c(C(=O)O)csc34)c(=O)c2C1` (single isomer, unassigned) [Compound 362]: under 5 µM and under 0.1 µM.
The matching figures for `Cc1cc(-c2cc(Cl)ccc2OCCn2c(C)nc3c(c2=O)CC(N2CC4(CCC(F)(F)CC4)C2)CC3)c2scc(C(=O)NS(C)(=O)=O)c2n1` (single isomer, unassigned) [Compound 363]: under 5 µM and under 0.1 µM.
As for `Cc1cc(-c2cc(Cl)ccc2OCCn2c(C)nc3c(c2=O)CC(N2CC4(CCC(F)(F)CC4)C2)CC3)c2scc(C(=O)NS(C)(=O)=O)c2n1` (single isomer, unassigned) [Compound 364], the figures for the IC50 in assay [1] and in assay [2] were under 5 µM and under 0.1 µM, respectively.
As to `COC1CCN(C2CCc3nc(C)n(CC#Cc4ccc(Cl)cc4-c4ccnc5c(C(=O)O)csc45)c(=O)c3C2)CC1` (single isomer, unassigned) [Compound 365], the IC50 was under 5 µM in assay [1] (Homo sapiens, COLO 205, 72 h) and under 0.1 µM in assay [2].
As to `CO[C@@H]1CCN([C@@H]2CCc3nc(C)n(CCOc4ccc(Cl)cc4-c4cc(C)nc5c(C(=O)O)csc45)c(=O)c3C2)C[C@@H]1F` (single isomer, unassigned) [Compound 366], the IC50 is 5 to 20 µM in assay [1] (Homo sapiens, COLO 205, 72 h) and under 0.1 µM in assay [2].
Take `CO[C@@H]1CCN([C@H]2CCc3nc(C)n(CCOc4ccc(Cl)cc4-c4cc(C)nc5c(C(=O)O)csc45)c(=O)c3C2)C[C@@H]1F` (single isomer, unassigned) [Compound 367]: the IC50 was under 5 µM in assay [1] (Homo sapiens, COLO 205, 72 h) and under 0.1 µM in assay [2].
Turning to `Cc1cc(-c2cc(Cl)ccc2OCCn2c(C)nc3c(c2=O)C[C@H](N2C[C@@H]4CC(F)(F)C[C@@H]4C2)CC3)c2scc(C(=O)NS(C)(=O)=O)c2n1` (single isomer, unassigned) [Compound 368], the IC50 is under 5 µM in assay [1] (Homo sapiens, COLO 205, 72 h) and under 0.1 µM in assay [2].
With `[2H]C1(N2CCC(OC(F)(F)F)CC2)CCc2nc(C)n(CCOc3ccc(Cl)cc3-c3cc(C)nc4c(C(=O)O)csc34)c(=O)c2C1` (single isomer, unassigned) [Compound 370], the IC50 in assay [1] is under 5 µM; in assay [2] it was under 0.1 µM.
Regarding `COC1CCN([C@H]2Cc3c(nc(C)n(CCOc4ccc(Cl)cc4-c4cc(C)nc5c(C(=O)O)csc45)c3=O)C3(CC3)C2)CC1` (single isomer, unassigned) [Compound 371], the IC50 in assay [1] (Homo sapiens, COLO 205, 72 h) was under 5 µM; in assay [2] it was under 0.1 µM.
The matching figures for `COC1CCN([C@@H]2Cc3c(nc(C)n(CCOc4ccc(Cl)cc4-c4cc(C)nc5c(C(=O)O)csc45)c3=O)C3(CC3)C2)CC1` (single isomer, unassigned) [Compound 372]: under 5 µM and under 0.1 µM.
For `Cc1cc(-c2cc(Cl)ccc2OCCn2c(C)nc3c(c2=O)C[C@H](N2CCC(C(F)(F)F)CC2)CC3)c2scc(C(=O)O)c2n1` (single isomer, unassigned) [Compound 373], the IC50 in assay [1] (Homo sapiens, COLO 205, 72 h) is under 5 µM; in assay [2], under 0.1 µM.
In the same order, the values of `Cc1cc(-c2cc(Cl)ccc2OCCn2c(C)nc3c(c2=O)C[C@@H](N2CCC(C(F)(F)F)CC2)CC3)c2scc(C(=O)O)c2n1` (single isomer, unassigned) [Compound 374] are under 5 µM and under 0.1 µM.
As for `Cc1cc(-c2cc(Cl)ccc2OCCn2c(C)nc3c(c2=O)CC(N2CC4CC(C2)C4(F)F)CC3)c2scc(C(=O)O)c2n1` (single isomer, unassigned) [Compound 375], the IC50 in assay [1] was under 5 µM; in assay [2], under 0.1 µM.
For the molecule `CO[C@@H]1CCN([C@@H]2CCc3nc(C)n(CCOc4ccc(Cl)cc4-c4cc(C)nc5c(C(=O)O)csc45)c(=O)c3C2)CC1(C)C` (single isomer, unassigned) [Compound 376], the IC50 in assay [1] (Homo sapiens, COLO 205, 72 h) was under 5 µM; in assay [2] it was under 0.1 µM.
As to `CO[C@@H]1CCN([C@H]2CCc3nc(C)n(CCOc4ccc(Cl)cc4-c4cc(C)nc5c(C(=O)O)csc45)c(=O)c3C2)CC1(C)C` (single isomer, unassigned) [Compound 377], the IC50 in assay [1] (Homo sapiens, COLO 205, 72 h) was under 5 µM; in assay [2], under 0.1 µM.
For the molecule `CO[C@H]1CCN([C@H]2CCc3nc(C)n(CCOc4ccc(Cl)cc4-c4cc(C)nc5c(C(=O)O)csc45)c(=O)c3C2)CC1(C)C` (single isomer, unassigned) [Compound 378], the concentration for half-maximal inhibition (IC50) in assay [1] (Homo sapiens, COLO 205, 72 h) was under 5 µM; in assay [2], under 0.1 µM.
For `Cc1cc(-c2cc(Cl)ccc2OCCn2c(C)nc3c(c2=O)CC(N2CCC(OC(F)(F)F)CC2)CC32CC2)c2scc(C(=O)O)c2n1` (single isomer, unassigned) [Compound 379, 7-(5-chloro-2-(2-(2′-methyl-4′-oxo-6′-(4-(trifluoromethoxy)piperidin-1-yl)-6′,7′-dihydro-4′H-spiro[cyclopropane-1,8′-quinazolin]-3′(5′H)-yl)ethoxy)phenyl)-5-methylthieno[3,2-b]pyridine-3-carboxylic acid], the IC50 in assay [1] (Homo sapiens, COLO 205, 72 h) is under 5 µM; in assay [2], under 0.1 µM.
In the case of `Cc1cc(-c2cc(Cl)ccc2OCCn2c(C)nc3c(c2=O)CC(N2CCC(OC(F)(F)F)CC2)CC32CC2)c2scc(C(=O)O)c2n1` (single isomer, unassigned) [Compound 380, 7-(5-chloro-2-(2-(2′-methyl-4′-oxo-6′-(4-(trifluoromethoxy)piperidin-1-yl)-6′,7′-dihydro-4′H-spiro[cyclopropane-1,8′-quinazolin]-3′(5′H)-yl)ethoxy)phenyl)-5-methylthieno[3,2-b]pyridine-3-carboxylic acid], the IC50 was under 5 µM in assay [1] and under 0.1 µM in assay [2].
As for `Cc1cc(-c2cc(Cl)ccc2OCCn2c(C)nc3c(c2=O)C[C@H](N2CCC[C@H](C(F)(F)F)C2)CC3)c2scc(C(=O)O)c2n1` (single isomer, unassigned) [Compound 381], the IC50 in assay [1] (Homo sapiens, COLO 205, 72 h) is under 5 µM; in assay [2] it was under 0.1 µM.
Consider `Cc1cc(-c2cc(Cl)ccc2OCCn2c(C)nc3c(c2=O)C[C@H](N2CCC[C@@H](C(F)(F)F)C2)CC3)c2scc(C(=O)O)c2n1` (single isomer, unassigned) [Compound 382], for which the IC50 was under 5 µM in assay [1] (Homo sapiens, COLO 205, 72 h) and under 0.1 µM in assay [2].
Take `Cc1cc(-c2cc(Cl)ccc2OCCn2c(C)nc3c(c2=O)C[C@@H](N2CCC[C@@H](C(F)(F)F)C2)CC3)c2scc(C(=O)O)c2n1` (single isomer, unassigned) [Compound 383]: the IC50 is 5 to 20 µM in assay [1] (Homo sapiens, COLO 205, 72 h) and under 0.1 µM in assay [2].
`Cc1cc(-c2cc(Cl)ccc2OCCn2c(C)nc3c(c2=O)C[C@@H](N2CCC[C@H](C(F)(F)F)C2)CC3)c2scc(C(=O)O)c2n1` (single isomer, unassigned) [Compound 384]: the IC50 in assay [1] (Homo sapiens, COLO 205, 72 h) was under 5 µM; in assay [2], under 0.1 µM.
The matching figures for `Cc1cc(-c2cc(Cl)ccc2OCCn2c(C)nc3c(c2=O)C[C@H](N2CCC(OC(F)F)CC2)CC3)c2scc(C(=O)O)c2n1` (single isomer, unassigned) [Compound 385]: under 5 µM and under 0.1 µM.
In the same order, the values of `Cc1cc(-c2cc(Cl)ccc2OCCn2c(C)nc3c(c2=O)C[C@H](N2CC[C@H](OC(F)(F)F)C2)CC3)c2scc(C(=O)O)c2n1` (single isomer, unassigned) [Compound 386] are under 5 µM and under 0.1 µM.
